In publication PMC9278656 (Journal of medicinal chemistry, 2021):
Counter-ions that a name gives are not always drawn. Like-named read-outs stand apart in the source and are kept apart here.

Key:
[1] = Ionophore activity; conditions: larger number indicates weaker ionophore activity
[2] = tested on: p53^R175H; test: Immunofluorescence with conformation-specific antibodies PAB1620/PAB240; format: cell-based
[3] = Caco-2 permeability; format: in vitro ADME; conditions: human
[4] = tested on: TOV-112D (p53^R175H); test: Cell growth inhibition assay; format: cell-based; conditions: Homo sapiens, TOV112D, 72 h, read-out: EC50 TOV-112D
[5] = cited from earlier work
[6] = NCr nu/nu nude, mouse, in vivo, ip
[7] = tested on: p53 wild type and p53 null cell lines; test: Cell kill in p53 wild type and p53 null cell lines; format: cell-based; conditions: allele selectivity, Suppl. Figure S1
[8] = tested on: MDA-MB-468 (p53^R273H) tumors; test: Xenograft tumor assay, MDA-MB-468; format: in vivo, nude mice NCr nu/nu; conditions: non Zn-deficient mutation, Suppl. Figure S2
[9] = tested on: Rat Sodium Channel site 2; test: CEREP safety screen, sodium channel site 2; format: binding; conditions: 10 μM
[10] = target: Human Norepinephrine Transporter (Homo sapiens, UniProt P23975); test: CEREP safety screen, norepinephrine transporter; format: binding; conditions: 10 μM
Human Norepinephrine Transporter, sequence (P23975 whole entry): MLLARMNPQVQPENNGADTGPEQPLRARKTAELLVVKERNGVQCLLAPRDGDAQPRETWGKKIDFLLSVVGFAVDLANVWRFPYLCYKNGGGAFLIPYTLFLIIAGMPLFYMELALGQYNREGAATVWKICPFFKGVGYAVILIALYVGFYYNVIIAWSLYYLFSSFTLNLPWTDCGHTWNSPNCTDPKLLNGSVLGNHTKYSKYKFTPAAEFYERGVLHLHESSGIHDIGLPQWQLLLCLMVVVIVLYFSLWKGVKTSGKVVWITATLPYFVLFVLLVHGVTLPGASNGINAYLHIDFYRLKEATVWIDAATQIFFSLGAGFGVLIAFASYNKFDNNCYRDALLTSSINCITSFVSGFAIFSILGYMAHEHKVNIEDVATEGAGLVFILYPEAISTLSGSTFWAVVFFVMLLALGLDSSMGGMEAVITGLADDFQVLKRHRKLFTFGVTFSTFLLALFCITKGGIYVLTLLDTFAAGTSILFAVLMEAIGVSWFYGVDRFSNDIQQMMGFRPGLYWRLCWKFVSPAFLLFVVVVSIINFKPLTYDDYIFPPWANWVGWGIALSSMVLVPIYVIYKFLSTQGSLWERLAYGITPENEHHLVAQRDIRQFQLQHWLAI

[11] = target: Human hERG (Homo sapiens, UniProt Q12809); test: CEREP safety screen, hERG [3H]-dofetilide; format: binding; conditions: 10 μM
Human hERG, sequence (Q12809 whole entry): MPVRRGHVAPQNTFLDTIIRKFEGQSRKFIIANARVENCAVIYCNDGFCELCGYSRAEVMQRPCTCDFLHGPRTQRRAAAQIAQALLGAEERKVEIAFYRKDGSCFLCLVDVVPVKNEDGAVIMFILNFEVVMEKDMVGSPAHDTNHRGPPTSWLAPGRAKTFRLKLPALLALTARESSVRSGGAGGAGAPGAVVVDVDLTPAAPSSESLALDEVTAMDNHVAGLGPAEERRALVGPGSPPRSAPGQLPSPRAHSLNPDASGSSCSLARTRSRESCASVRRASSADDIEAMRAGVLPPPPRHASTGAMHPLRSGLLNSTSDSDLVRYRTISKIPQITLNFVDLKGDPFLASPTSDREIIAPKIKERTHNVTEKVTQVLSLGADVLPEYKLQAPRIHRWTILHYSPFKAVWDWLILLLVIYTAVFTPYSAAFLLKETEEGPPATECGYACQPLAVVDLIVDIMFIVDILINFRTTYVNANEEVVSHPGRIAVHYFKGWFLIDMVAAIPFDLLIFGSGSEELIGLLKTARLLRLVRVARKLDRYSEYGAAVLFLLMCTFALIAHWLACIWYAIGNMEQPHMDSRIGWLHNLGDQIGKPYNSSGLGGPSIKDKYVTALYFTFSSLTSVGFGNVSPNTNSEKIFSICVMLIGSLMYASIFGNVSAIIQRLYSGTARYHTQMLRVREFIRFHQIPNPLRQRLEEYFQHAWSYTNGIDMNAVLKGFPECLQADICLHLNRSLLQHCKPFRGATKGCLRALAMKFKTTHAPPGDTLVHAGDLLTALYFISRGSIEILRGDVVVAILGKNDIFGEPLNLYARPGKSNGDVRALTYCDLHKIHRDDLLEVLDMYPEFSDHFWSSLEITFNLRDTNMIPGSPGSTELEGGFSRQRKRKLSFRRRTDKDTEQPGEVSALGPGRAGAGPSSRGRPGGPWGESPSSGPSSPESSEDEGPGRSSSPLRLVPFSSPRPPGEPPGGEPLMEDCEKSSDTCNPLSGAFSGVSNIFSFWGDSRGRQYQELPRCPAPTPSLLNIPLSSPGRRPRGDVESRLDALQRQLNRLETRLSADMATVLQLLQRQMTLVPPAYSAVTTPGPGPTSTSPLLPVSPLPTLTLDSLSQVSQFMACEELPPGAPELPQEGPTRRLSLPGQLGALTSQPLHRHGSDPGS

[12] = tested on: H1299 cells (p53 null); test: Oxidative stress detection, CellROX Green, flow cytometry; format: cell-based; conditions: 0.75 μM compound, 24 h, relative to ZMC1
[13] = Hydrolytic stability in SGF and PBS; format: physicochemical; conditions: 6 h
[14] = tested on: TOV-112D cells; test: Combination of C85 with γ-irradiation or etoposide, cell growth inhibition; format: cell-based; conditions: Homo sapiens, TOV112D, read-out: EC50, C85 only

C/C(=N\Nc1nc2ccccc2n1CCN(C)C)c1ccccn1 [C27, (E)-N,N-Dimethyl-2-(2-(2-(1-(pyridin-2-yl)ethylidene)hydrazineyl)-1H-benzo[d]imidazol-1-yl)ethan-1-amine HCl]
Ionophore Ji drug/Ji DMSO [1]: 11.6 -log[mol/m^2s]
Refolding p53^R175H → wild type [2]: YES

C/C(=N\NC(=S)N(C)C)c1ccccn1 [A1, (E)-N,N-Dimethyl-2-(1-(pyridin-2-yl)ethylidene)hydrazine-1-carbothioamide]
Papp at 90 min, 5 μM [3]: 7.3 ± 0.1 ×10⁻⁶ cm/s
Ionophore Ji drug/Ji DMSO [1]: 12.8 -log[mol/m^2s]
Refolding p53^R175H → wild type [2]: YES

C/C(=N\Nc1nc2ccccc2o1)c1cc(OCCN(C)C)ccn1 [C35, (E)-2-((2-(1-(2-(Benzo[d]oxazol-2-yl)hydrazineylidene)ethyl)pyridin-4-yl)oxy)-N,N-dimethylethan-1-amine HCl]
Refolding p53^R175H → wild type [2]: YES

C/C(=N\NC(=S)N1CCC1)c1cnccn1 [A10, (E)-N′-(1-(Pyrazin-2-yl)ethylidene)azetidine-1-carbothiohydrazide]
EC50 [4]: 22 nM
Ionophore Ji drug/Ji DMSO [1]: 11.8 -log[mol/m^2s]
Refolding p53^R175H → wild type [2]: YES

C/C(=N\Nc1nc2ccccc2s1)c1cc(OCCO)ccn1 [C61, (E)-2-((2-(1-(2-(Benzo[d]thiazol-2-yl)hydrazineylidene)ethyl)pyridin-4-yl)oxy)ethan-1-ol]
Ionophore Ji drug/Ji DMSO [1]: 11.6 -log[mol/m^2s]

C/C(=N\Nc1nc2ccccc2s1)c1ccccn1 [C1, (E)-2-(2-(1-(Pyridin-2-yl)ethylidene)hydrazinyl)benzo[d]thiazole]
Papp at 90 min, 5 μM [3]: 4.4 ± 0.1 ×10⁻⁶ cm/s
Aqueous solubility [5]: low aqueous solubility
Well tolerated dose without significant weight loss [6]: up to 30 mg/kg
Cell kill in p53 wild type and p53 null cell lines [7]: almost no cell kill
Tumor growth inhibition of p53^R273H tumors [8]: did not inhibit the tumor growth
Activity against the sodium channel, in words [9]: showed activity
Ionophore Ji drug/Ji DMSO [1]: 11.6 -log[mol/m^2s]
Activity against the norepinephrine transporter, in words [10]: showed activity
Refolding p53^R175H → wild type [2]: induced a wild-type conformational change
Refolding p53^R175H → wild type ([2]; listed as Cl): YES

C/C(=N\Nc1nc2ccccc2n1C)c1ccccn1 [C9, (E)-1-Methyl-2-(2-(1-(pyridin-2-yl)ethylidene)hydrazinyl)-1H-benzo[d]imidazole]
hERG inhibition, in words [11]: strong hERG inhibition
Aqueous solubility [5]: low aqueous solubility
Ionophore Ji drug/Ji DMSO [1]: 11.6 -log[mol/m^2s]
Refolding p53^R175H → wild type [2]: YES

C/C(=N\Nc1nc2ccccc2n1CCN1CCOCC1)c1ccccn1 [C42, (E)-4-(2-(2-(2-(1-(Pyridin-2-yl)ethylidene)hydrazineyl)-1H-benzo[d]imidazol-1-yl)ethyl)morpholine HCl]
hERG inhibition, in words [11]: strong hERG inhibition
Ionophore Ji drug/Ji DMSO [1]: 11.6 -log[mol/m^2s]
ROS (ROS/ZMC1 ROS) [12]: 1.0
Refolding p53^R175H → wild type [2]: YES

C/C(=N\NC(=S)NC1CCN(c2ccccn2)CC1)c1ccccn1 [A4, (E)-2-(1-(Pyridin-2-yl)ethylidene)-N-(1-(pyridin-2-yl)piperidin-4-yl)hydrazine-1-carbothioamide]
Ionophore Ji drug/Ji DMSO [1]: 14.5 -log[mol/m^2s]

COC/C(=N\Nc1nc2ccccc2s1)c1ccccn1 [C65, (Z)-2-(2-(2-Methoxy-1-(pyridin-2-yl)ethylidene)hydrazineyl)benzo[d]thiazole]
Ionophore Ji drug/Ji DMSO [1]: 11.6 -log[mol/m^2s]
Refolding p53^R175H → wild type [2]: YES

COCCOc1ccc2nc(N/N=C(\C)c3ccccn3)sc2c1 [C23, (E)-6-(2-Methoxyethoxy)-2-(2-(1-(pyridin-2-yl)ethylidene)hydrazineyl)benzo[d]thiazole AcOH]
Ionophore Ji drug/Ji DMSO [1]: 11.6 -log[mol/m^2s]
Refolding p53^R175H → wild type [2]: YES

C/C(=N\Nc1nc2ccccc2n1C)c1ncccn1 [C89, (E)-1-Methyl-2-(2-(1-(pyrimidin-2-yl)ethylidene)hydrazineyl)-1H-benzo[d]imidazole HCl]
hERG inhibition, in words [11]: strong hERG inhibition
Ionophore Ji drug/Ji DMSO [1]: 12.0 -log[mol/m^2s]

C/C(=N\Nc1nccn1C)c1ccccn1 [C78, 2-(1-(2-(1-Methyl-1H-imidazol-2-yl)hydrazono)ethyl)pyridine HCl]
Ionophore Ji drug/Ji DMSO [1]: 11.8 -log[mol/m^2s]
Refolding p53^R175H → wild type [2]: YES

C/C(=N\NC(=S)N1CCC1)c1cc(N(C)C)ccn1 [A14, (E)-N′-(1-(4-(Dimethylamino)pyridin-2-yl)ethylidene)azetidine-1-carbothiohydrazide]
Ionophore Ji drug/Ji DMSO [1]: 12.5 -log[mol/m^2s]

C/C(=N\Nc1nc2ccccc2s1)c1cc(OCCN(C)C)ccn1 [C28, (E)-2-((2-(1-(2-(Benzo[d]thiazol-2-yl)hydrazineylidene)ethyl)pyridin-4-yl)oxy)-N,N-dimethylethan-1-amine HCl]
hERG inhibition, in words [11]: strong hERG inhibition
Ionophore Ji drug/Ji DMSO [1]: 11.6 -log[mol/m^2s]
Activity against the norepinephrine transporter, in words [10]: showed activity
Refolding p53^R175H → wild type [2]: YES

CS/C(=N\N=C(/C)c1ccccn1)N1CCC1 [A5, Methyl (Z)-N-((E)-1-(Pyridin-2-yl)ethylidene)azetidine-1-carbohydrazonothioate]
Ionophore Ji drug/Ji DMSO [1]: 12.4 -log[mol/m^2s]

C/C(=N\Nc1nc2ccccc2s1)c1ncccn1 [C77, (E)-2-(2-(1-(Pyrimidin-2-yl)ethylidene)hydrazineyl)benzo[d]thiazole AcOH]
Ionophore Ji drug/Ji DMSO [1]: 11.8 -log[mol/m^2s]
Activity against the norepinephrine transporter, in words [10]: showed activity

C/C(=N\NC(=O)N1CCC1)c1ccccn1 [A6, (E)-N′-(1-(Pyridin-2-yl)ethylidene)azetidine-1-carbohydrazide]
Ionophore Ji drug/Ji DMSO [1]: 12.9 -log[mol/m^2s]

C/C(=N\Nc1nc2ccccc2n1CCN1CCC(F)(F)C1)c1ccccn1 [C85, (E)-1-(2-(3,3-Difluoropyrrolidin-1-yl)ethyl)-2-(2-(1-(pyridin-2-yl)ethylidene)hydrazineyl)-1H-benzo[d]imidazole HCl]
hERG inhibition, in words [11]: potent hERG inhibition
Compound remaining ([13]; SGF pH 1–2, 37 °C): > 82%
Compound remaining ([13]; SGF pH 1–2, room temperature): > 92%
EC50 ([14]; light or radiation study, 72 h): 710 nM
EC50 [14]: 570 nM
Ionophore Ji drug/Ji DMSO [1]: 12.2 -log[mol/m^2s]
ROS (ROS/ZMC1 ROS) [12]: 0.8
Refolding p53^R175H → wild type [2]: could induce a wild-type conformational change and YES

C/C(=N\Nc1nc2ccccc2o1)c1ccccn1 [C2, (E)-2-(2-(1-(Pyridin-2-yl)ethylidene)hydrazinyl)benzo[d]oxazole]
Papp at 90 min, 5 μM [3]: 10.6 ± 0.5 ×10⁻⁶ cm/s
Aqueous solubility [5]: low aqueous solubility
Cell kill in p53 wild type and p53 null cell lines [7]: almost no cell kill
Ionophore Ji drug/Ji DMSO [1]: 11.8 -log[mol/m^2s]
Refolding p53^R175H → wild type [2]: induced a wild-type conformational change and YES

C/C(=N\Nc1nc2ccccc2s1)c1cc(OCCN2CCN(C)CC2)ccn1 [C64, (E)-2-(2-(1-(4-(2-(4-Methylpiperazin-1-yl)ethoxy)pyridin-2-yl)ethylidene)hydrazineyl)benzo[d]thiazole HCl]
Ionophore Ji drug/Ji DMSO [1]: 11.6 -log[mol/m^2s]

C/C(=N\NC(=S)N1CCC1)c1ccccc1 [A9, (E)-N′-(1-Phenylethylidene)azetidine-1-carbothiohydrazide]
Ionophore Ji drug/Ji DMSO [1]: 11.6 -log[mol/m^2s]

CC(C)(C)/C(=N\NC(=S)N1CCC1)c1ccccn1 [A13, (E)-N′-(2,2-Dimethyl-1-(pyridin-2-yl)propylidene)azetidine-1-carbothiohydrazide]
Ionophore Ji drug/Ji DMSO [1]: 14.4 -log[mol/m^2s]

C/C(=N\Nc1nc2ccccc2n1CCN1CCCC1)c1ccccn1 [C69, (E)-2-(2-(1-(Pyridin-2-yl)ethylidene)hydrazineyl)-1-(2-(pyrrolidin-1-yl)ethyl)-1H-benzo[d]imidazole HCl]
hERG inhibition, in words [11]: strong hERG inhibition
Activity against the sodium channel, in words [9]: showed activity
EC50 [4]: 93 nM
Ionophore Ji drug/Ji DMSO [1]: 11.6 -log[mol/m^2s]
Activity against the norepinephrine transporter, in words [10]: showed activity
ROS (ROS/ZMC1 ROS) [12]: 1.2
Refolding p53^R175H → wild type [2]: YES

C/C(=N\NC(=S)N1CCC1)c1cccc(C)n1 [A11, (E)-N′-(1-(6-Methylpyridin-2-yl)ethylidene)azetidine-1-carbothiohydrazide]
Ionophore Ji drug/Ji DMSO [1]: 12.6 -log[mol/m^2s]
Refolding p53^R175H → wild type [2]: YES

C/C(=N\Nc1nc2ccccc2s1)c1cc(N(C)C)ccn1 [C21, (E)-2-(1-(2-(Benzo[d]thiazol-2-yl)hydrazineylidene)ethyl)-N,N-dimethylpyridin-4-amine]
Ionophore Ji drug/Ji DMSO [1]: 11.6 -log[mol/m^2s]
Refolding p53^R175H → wild type [2]: YES

C/C(=N\NC(=S)N1CCC1)c1ncccc1C [A12, (E)-N′-(1-(3-Methylpyridin-2-yl)ethylidene)azetidine-1-carbothiohydrazide]
EC50 [4]: 11 nM
Ionophore Ji drug/Ji DMSO [1]: 11.6 -log[mol/m^2s]

C/C(=N\Nc1ccc2ccccc2n1)c1ccccn1 [C22, (E)-2-(2-(1-(Pyridin-2-yl)ethylidene)hydrazineyl)quinoline]
Ionophore Ji drug/Ji DMSO [1]: 11.6 -log[mol/m^2s]
Refolding p53^R175H → wild type [2]: YES
